Legend:
[1] = Systemic COHb and blood chemistry after oral methylene chloride in rats; format: in vivo, rat; conditions: MC-treated rats, 500 mg/kg daily
Procedure: MC (Sigma, St. Louis, Mo.) was diluted in olive oil and administered orally on a daily basis (from day 0 to 30) at 500 mg/kg. This dose saturates the cytochrome P-450 oxidative system, and yields maximal COHb values of 10% COHb in venous or aortic blood. Gargas et al. and Andersen et al., supra; Wirkner et al., Toxicol. App. PharmacoL 143:83-88 (1997). […] Id. […] Kirschman, Fd. Chem. Toxic. 24:943-49 (1986); Dhillon and Von Burg, Toxicology Update 1:329-35 (1995). MC may show liver and central nervous system toxicity at higher doses and/or longer exposures. Id. COHb levels were evaluated in heparinized venous blood using the VOXimeter sensor (A-VOX Systems, San Antonio, Tex.) and expressed as the percentage of total hemoglobin. Bicarbonates, soluble CO2, total CO2 and pH were measured using standard clinical biochemistry techniques (Laboratory of Biochemistry, University Hospital of Nantes).

Lewis rats = assay: Experimental autoimmune encephalomyelitis (EAE) model of multiple sclerosis; format: in vivo, rat; conditions: daily oral administration from day 8 post-inoculation; scale 0 to 3
Procedure: Multiple sclerosis is characterized by an autoimmune and inflammatory response directed against myelin sheath and oligodendrocytes, resulting in demyelination in the central nervous system. A well-established animal model of multiple sclerosis, experimental autoimmune encephalomyelitis (EAE), was used to examine the effect of the subject alkyl halides on this autoimmune and inflammatory condition of the central nervous system. Lewis rats were given intradermal footpad injections of 50 μg guinea pig myelin basic protein (MBP) and complete Freund's adjuvant (CFA) to induce experimental allergic encephalomyelitis (EAE). Daily oral administration of vehicle, methylene chloride or iodoform was started on day 8 post-inoculation and continued to the end of the study. Animals were monitored and scored on a 0 (normal) to 3 (complete hindlimb paralysis) scale. Daily mean±SD clinical scores are shown.

[2] = mice exposed to gaseous CO at 500 ppm
Procedure: To examine the effect of gaseous CO on the immune system, C57/BL6 mice (B6, Jackson Laboratory, Bar Harbor, Me.) were first exposed to 500 ppm CO in air (Praxair, Danbury, Conn.) for one hour in a sealed chamber before injection of lipopolysaccharide (LPS) (0.3 mg/kg, i.v., Sigma, St Louis, Mo.). After injection, they were exposed to another hour in the CO chamber. Blood samples were collected one hour after LPS injection (through the aortic artery) and the COHb level in whole blood was measured by a whole blood AVOXimeter 4000 (A-VOX Systems, San Antonio, Tex.). Serum samples were separated and were kept at −80° C. until analysis. Serum TNF-α was measured by sandwich ELISA (Biosource, Camarillo, Calif.).
To reveal the therapeutic potential of CO generators, methylene chloride (MC, Sigma, St. Louis, Mo.) was selected as a lead compound. Different concentrations of MC were prepared by using olive oil as a solvent. Mice were treated with MC at 5 mg/kg., 50 mg/kg, and 500 mg/kg, p.o., one hour before LPS administration.

aortic allografts = assay: Immunohistology of aortic grafts: infiltrating leukocytes and VSMCs; format: in vivo, rat; parameters: key: −: not present; +: low; ++: moderate; +++: frequent; conditions: day 30
Procedure: Immunohistological analysis. Immunohistology was performed on cryostat sections as previously described in detail. Guillot et al., J. Immunol. 164:5258-68 (2000). Immunohistological analysis of infiltrating leukocytes was performed at day 30 after transplantation using the following mouse Mab: a mixture of two anti-leukocyte CD45 Mabs (OX1 AND OX30), anti-monocyte/macrophage CD68 (ED1), anti-αβ TCR (R.7.3), anti-CD4 (W3/25), anti-CD8 α chain (OX8), anti-monomorphic class II MHC antigens (OX6), anti-CD25 (OX39) (all from ECACC, Wiltshire, UK), anti-CD54 (ICAM-1) (Seikagaku America Inc., Rockville, Mass.), anti-CD86 (B7.2) (Pharmingen, Franklin Lakes, N.J.) and an irrelevant mouse Mab (3G8, anti-human CD16). VSMCs were detected using a mouse anti-α human smooth muscle actin Mab (Sigma, St. Louis, Mo.). Slides were then incubated with a biotin-conjugated anti-mouse immunoglobulin antibody (Vector Laboratories, Burlingame, Calif.), followed by HRP-conjugated streptavidin (Vector Laboratories) and VIP substrate. IFNγ expression was analyzed using a hamster Mab (Genzyme, Cambridge, Mass.). The IP10 chemiokine was detected using a goat anti-IP10 antibody (Santa Cruz, Santa Cruz, Calif.). Rabbit antibodies were used to detect iNOS (Transduction Laboratories, Lexington, Ky.), HO-1 (Stressgen) and TGFβ1 (Promega, Madison, Wis.). Biotin-conjugated anti-hamster, anti-goat and anti-rabbit antibodies were from Jackson Immunoresearch. Binding of these antibodies was detected by incubation with HRP-conjugated streptavidin and VIP substrate. Tissue sections were counterstained with hematoxylin and lithium carbonate.

In the case of `ClCCl` [methylene chloride], the “behavior, food consumption, gross necropsy” value [1] is reported as “normal behavior, food consumption and no particular gross necropsy alterations” and the “clinical score / clinical signs” value (Lewis rats) is reported as “show improvement over the controls”.

In the case of `[C-]#[O+]` [CO, carbon monoxide], the O2Hb levels [2] is reported as 79.18±1.569%, the CD4 (aortic allografts; adventitia) is reported as “++” and the CD8 (aortic allografts; adventitia) is reported as “+”. The “CD45 (leukocytes)” value (aortic allografts; adventitia) was “+++”, the “CD68 (macrophages)” value (aortic allografts; adventitia) was “+++” and the “TCRαβ (T cells)” value (aortic allografts; adventitia) was “+”. The VSMCs (aortic allografts; adventitia) was “−”, the CD4 (aortic allografts; intima) was “+” and the CD8 (aortic allografts; intima) was “+”. The “CD45 (leukocytes)” value (aortic allografts; intima) was “++”, the “CD68 (macrophages)” value (aortic allografts; intima) was “++” and the “TCRαβ (T cells)” value (aortic allografts; intima) was “−”. For the same compound, the VSMCs (aortic allografts; intima) was “−”, the CD4 (aortic allografts; media) was “−” and the CD8 (aortic allografts; media) was “−”. The “CD45 (leukocytes)” value (aortic allografts; media) was “−”, the “CD68 (macrophages)” value (aortic allografts; media) was “−” and the “TCRαβ (T cells)” value (aortic allografts; media) was “−”. For the same compound, the VSMCs (aortic allografts; media) was “+++”.

Reference: patent publication US20040143025A1, “Carbon monoxide generating compunds for treatment of vascular, inflammatory and immune disorders” (priority 2002, published 2004)
